Here are results for eleven compounds from ChEMBL document CHEMBL5329196, “Development of truncated Battacin antimicrobials featuring novel N-terminal fatty acids with an excellent safety profile” (Bioorg Med Chem Lett, 2023).

≈ marks a conversion by molar mass, not a printed value. Where a SMILES comes first, the peptide text is derived from it.

The test system of one series is Staphylococcus aureus. Nature of the series: Antibacterial activity against Staphylococcus aureus assessed as inhibition of bacterial growth incubated for 24 hrs by visual inspection analysis. In kind it is functional.
A short description of series [1]: Pro-aggregation of the compound in human MDA-MB-231 cells at 1 mM by Bright field microscopic analysis. In kind it is physicochemical, cell-based. The note with it: mda-mb-231, 1000 µM.
The nature of series [2]: Induction of hemolysis in mouse RBC assessed as induction of hemoglobin release at ~100 uM incubated for 1 hr by absorbance based analysis. In kind it is toxicity, cell-based, Erythrocyte. The note with it: mouse red blood cells (erythrocytes), read-out: Activity.
Series [3] is described as follows: (§1) Cytotoxicity against human MDA-MB-231 cells assessed as reduction in cell viability measured after 24 hrs by quantitative live/dead fluorescence microscopy. In kind it is toxicity, cell-based. The note with it: human, MDA-MB-231 cells.
Series [4] in a line: (§2) Cytotoxicity against human NCI-H460 cells assessed as reduction in cell viability measured after 24 hrs by quantitative live/dead fluorescence microscopy. In kind it is toxicity, cell-based. Conditions: human, NCI-H460 cells; call rule not given here.
Series [5] is described as follows: Pro-aggregation of the compound in human NCI-H460 cells at 1 mM by fluorescence microscopic analysis. The note with it: nci-h460, 1000 µM. In kind it is physicochemical, cell-based.
Series [6] is described as follows: Selectivity ratio of EC50 for cytotoxicity against human MDA-MB-231 cells to EC50 for cytotoxicity against human NCI-H460 cells. In kind it is functional.
A short description of series [7]: (§3) Induction of hemolysis in mouse RBC assessed as induction of hemoglobin release incubated for 1 hr by absorbance based analysis. In kind it is toxicity, cell-based, Erythrocyte. The note with it: mouse, mouse red blood cells (erythrocytes).
A short description of series [8]: Pro-aggregation of the compound in human NCI-H460 cells at 1 mM by Bright field microscopic analysis. Conditions: nci-h460, 1000 µM. In kind it is physicochemical, cell-based.
The nature of series [9]: Therapeutic index, ratio of EC50 for induction of hemolytic activity against mouse RBC to MIC for antibacterial activity against Staphylococcus aureus. Conditions: mouse red blood cells (erythrocytes), read-out: TI. In kind it is toxicity.
Series [10] can be described thus: Pro-aggregation of the compound in human MDA-MB-231 cells at 1 mM by fluorescence microscopic analysis. Conditions: mda-mb-231, 1000 µM. In kind it is physicochemical, cell-based.
A short description of series [11]: Induction of hemolysis in mouse RBC assessed as induction of hemoglobin release at ~400 uM incubated for 1 hr by absorbance based analysis. In kind it is toxicity, cell-based, Erythrocyte. Conditions: mouse red blood cells (erythrocytes), read-out: Activity.
A further series concerns MDA-MB-231. Described as §1. Conditions: mda-mb-231. In kind it is toxicity, cell-based.
For another series, the system named is NCI-H460. Described as §2. In kind it is toxicity, cell-based. The note with it: nci-h460.
In another series the test system is Erythrocyte. Described as §3. In kind it is toxicity, cell-based. The note with it: erythrocyte.

With `C=CC(C)C(C)C(=O)N[C@H](CCN)C(=O)N[C@@H](CCN)C(=O)N[C@@H](CC(C)C)C(=O)N[C@H](Cc1ccccc1)C(=O)N[C@@H](CCN)C(N)=O` (stereo partly drawn), in the series with Staphylococcus aureus, the MIC was 18.2 µM (≈ 12.5 µg/mL).

With `CCCOc1ccc(/C=C/CCC(=O)N[C@H](CCN)C(=O)N[C@@H](CCN)C(=O)N[C@@H](CC(C)C)C(=O)N[C@H](Cc2ccccc2)C(=O)N[C@@H](CCN)C(N)=O)cc1`, the result in series [1], in series [5], in [8] and in series [10] was Active. For the same compound, in [2], the hemolysis at 1 h, 100 µM was 2.1%. In addition, the EC50 at 24 h in series [3] was determined as 221 µM; in series [4], 90 µM. The MIC in the series on Staphylococcus aureus turned out to be 1 µM (≈ 0.794 µg/mL). Also, the “Ratio EC50” value in [6] is 2. For the same compound, in [7], the EC50 at 1 h was roughly 330 µM. Also, in [9], the selectivity ratio stood at 135.

On to `CC(C)C[C@H](NC(=O)[C@H](CCN)NC(=O)[C@@H](CCN)NC(=O)CC/C=C/c1ccccc1)C(=O)N[C@H](Cc1ccccc1)C(=O)N[C@@H](CCN)C(N)=O`, for which, in the series on Staphylococcus aureus, the MIC was found to be 2.1 µM (≈ 1.55 µg/mL).

`COc1ccc(/C=C/CCC(=O)N[C@H](CCN)C(=O)N[C@@H](CCN)C(=O)N[C@@H](CC(C)C)C(=O)N[C@H](Cc2ccccc2)C(=O)N[C@@H](CCN)C(N)=O)cc1`: in the series on Staphylococcus aureus, the MIC worked out at 2 µM (≈ 1.53 µg/mL).

`CC(C)C[C@H](NC(=O)[C@H](CCN)NC(=O)[C@@H](CCN)NC(=O)C(C)C(C)/C=C/c1ccccc1)C(=O)N[C@H](Cc1ccccc1)C(=O)N[C@@H](CCN)C(N)=O` (stereo partly drawn): the result in series [1], in series [5], in series [8] and in series [10] was Active. The EC50 at 24 h in [3] worked out at 898 µM; in [4], 324 µM. In the series on Staphylococcus aureus, the MIC was found to be 1 µM (≈ 0.764 µg/mL). Also, in series [11], the hemolysis at 1 h, 400 µM stood at 3.4%. Further, the “Ratio EC50” value in series [6] is listed as 2. Besides, the EC50 at 1 h in series [7] was no less than 400 µM. Further, the selectivity ratio in series [9] is greater than 267.

Consider `CCc1ccc(/C=C/CCC(=O)N[C@H](CCN)C(=O)N[C@@H](CCN)C(=O)N[C@@H](CC(C)C)C(=O)N[C@H](Cc2ccccc2)C(=O)N[C@@H](CCN)C(N)=O)cc1`, for which the MIC in the series on Staphylococcus aureus is 1 µM (≈ 0.764 µg/mL).

As for `CCCCc1ccc(/C=C/CCC(=O)N[C@H](CCN)C(=O)N[C@@H](CCN)C(=O)N[C@@H](CC(C)C)C(=O)N[C@H](Cc2ccccc2)C(=O)N[C@@H](CCN)C(N)=O)cc1`, the outcome in series [1], in series [5], in series [8] and in series [10] was Active. In series [2], the hemolysis at 1 h, 100 µM worked out at 56%. The EC50 at 24 h in series [3] was 67 µM; in [4] it was 31 µM. In addition, the MIC in the series with Staphylococcus aureus stood at 1 µM (≈ 0.792 µg/mL). In addition, in series [11], the hemolysis at 1 h, 400 µM was 77%. For the same compound, the “Ratio EC50” value in series [6] was found to be 2. The EC50 at 1 h in [7] was roughly 90 µM. In addition, the selectivity ratio in series [9] is 60.

Consider `C=CCCC(=O)N[C@H](CCN)C(=O)N[C@@H](CCN)C(=O)N[C@@H](CC(C)C)C(=O)N[C@H](Cc1ccccc1)C(=O)N[C@@H](CCN)C(N)=O`, for which the MIC in the series on Staphylococcus aureus amounted to 75.8 µM (≈ 50 µg/mL).

As for `CCC(C)CCC(=O)N[C@H](CCN)C(=O)N[C@@H](CCN)C(=O)N[C@@H](CC(C)C)C(=O)N[C@H](Cc1ccccc1)C(=O)N[C@@H](CCN)C(N)=O` (stereo partly drawn) (HELM PEPTIDE1{[CCC(C)CCC(=O)[*:2]].[NCC[C@@H](N[*:1])C(=O)[*:2]].[Dab].L.[dF].[Dab].[am]}$$$$V2.0), the MIC in the series with Staphylococcus aureus was 4.5 µM (≈ 3.1 µg/mL).

For `CN[C@@H]1[C@H](O[C@H]2[C@H](O[C@H]3[C@H](O)[C@@H](O)[C@H](N=C(N)N)[C@@H](O)[C@@H]3N=C(N)N)O[C@@H](C)[C@]2(O)C=O)O[C@@H](CO)[C@H](O)[C@H]1O` [STREPTOMYCIN], in the series with Staphylococcus aureus, the MIC came out at 1.3 µM (≈ 0.756 µg/mL).

In the case of POLYMYXIN B, the Activity entry in series [1], in [5], in series [8] and in series [10] was “Not Active” in each case. The EC50 with MDA-MB-231 is greater than 1000 µM; in the series with NCI-H460 it was 181 µM; with Erythrocyte, no less than 1000 µM.
